In BindingDB's records for doi:10.1002/cbic.201000487 (Eberhard Karls University of Tuebingen, 2010):

Experiments:
[1] = biological target: Mitogen-activated protein kinase 10 (Homo sapiens, UniProt P53779); test: Kinase Assay; details: 37 °C
Description: (§1) The p38alpha reaction was carried out by using kinase (12ng per well), ATP (100uM) and incubated for 60 min at 37 C. For the JNK3 assay, kinase (10ng per well), ATP (1uM) and 45 min of incubation time at 37 C were used.

[2] = biological target: Mitogen-activated protein kinase 14 (Homo sapiens, UniProt Q16539); test: Kinase Assay; details: 37 °C
Mitogen-activated protein kinase 14, sequence (Q16539 whole entry): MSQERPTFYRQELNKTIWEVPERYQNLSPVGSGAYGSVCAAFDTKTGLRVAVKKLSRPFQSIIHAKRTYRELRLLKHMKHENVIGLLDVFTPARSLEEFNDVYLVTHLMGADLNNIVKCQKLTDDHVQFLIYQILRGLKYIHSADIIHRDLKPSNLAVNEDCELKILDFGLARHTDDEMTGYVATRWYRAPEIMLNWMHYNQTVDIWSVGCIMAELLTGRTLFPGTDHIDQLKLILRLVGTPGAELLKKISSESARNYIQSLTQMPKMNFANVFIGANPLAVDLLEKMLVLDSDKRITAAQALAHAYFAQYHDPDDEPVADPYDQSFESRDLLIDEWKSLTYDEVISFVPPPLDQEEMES
Description: as §1

Mitogen-activated protein kinase 10, sequence (P53779 whole entry): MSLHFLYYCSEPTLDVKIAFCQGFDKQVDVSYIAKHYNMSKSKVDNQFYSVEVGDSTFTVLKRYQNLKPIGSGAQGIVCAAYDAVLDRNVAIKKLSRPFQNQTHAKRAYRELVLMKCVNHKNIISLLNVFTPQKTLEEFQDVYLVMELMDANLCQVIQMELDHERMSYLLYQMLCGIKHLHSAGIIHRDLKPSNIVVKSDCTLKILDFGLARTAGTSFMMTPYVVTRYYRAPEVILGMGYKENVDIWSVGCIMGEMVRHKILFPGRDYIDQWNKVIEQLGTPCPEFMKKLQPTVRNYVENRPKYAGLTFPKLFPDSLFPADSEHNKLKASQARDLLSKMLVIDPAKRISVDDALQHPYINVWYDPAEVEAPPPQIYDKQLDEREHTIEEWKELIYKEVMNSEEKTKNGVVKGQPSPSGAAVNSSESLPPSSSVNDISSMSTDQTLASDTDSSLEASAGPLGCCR

| Structure (SMILES) | IC50 [1] | IC50 [2] |
| --- | --- | --- |
| O=c1c(O)c(-c2cc(O)c(O)c(O)c2)oc2cc(O)cc(O)c12 | 2.24 µM | 1.64 µM |
| COc1cc(-c2oc3cc(O)cc(O)c3c(=O)c2O)ccc1O | 6.3 µM | 20.1 µM |
| COc1c(O)cc2oc(-c3ccc(O)c(O)c3)cc(=O)c2c1O | 15.9 µM | 22.2 µM |
| Oc1cc(O)c2c(c1)O[C@H](c1ccc(O)c(O)c1)[C@H](O)C2 | 89.5 µM | 67.6 µM |
| O=c1cc(-c2ccc(O)c(O)c2)oc2cc(O[C@@H]3O[C@H](CO)[C@@H](O)[C@H](O)[C@H]3O)cc(O)c12 | 2.45 µM | 87.1 µM |
| O=c1c(O)c(-c2ccc(O)cc2)oc2cc(O)cc(O)c12 | 19.1 µM | 18.4 µM |
| C[C@@H]1O[C@@H](Oc2c(-c3ccc(O)c(O)c3)oc3cc(O)cc(=O)c-3c2O)[C@H](O)[C@H](O)[C@H]1O | 20.2 µM | 28.1 µM |
| O=c1c(O)c(-c2ccc(O)cc2O)oc2cc(O)cc(O)c12 [2-(2,4-dihydroxyphenyl)-3,5,7-trihydroxychromen-4-one] | 26.8 µM | 11.4 µM |
| O=c1c(O)c(-c2ccc(O)c(O)c2)oc2cc(O)cc(O)c12 [2-(3,4-dihydroxyphenyl)-3,5,7-trihydroxy-chromone;hydrate] | 2.31 µM | 3.45 µM |
| O=c1c(O)c(-c2ccc(O)c(O)c2)oc2cc(O)ccc12 [2-(3,4-dihydroxyphenyl)-3,7-dihydroxy-chromen-4-one] | 2.6 µM | 2.7 µM |
| O=c1cc(-c2ccc(O)c(O)c2)oc2cc(O)cc(O)c12 [2-(3,4-dihydroxyphenyl)-5,7-dihydroxy-4H-chromen-4-one] | 2.3 µM | 18 µM |
| COc1cc(O)c2c(=O)c(OC)c(-c3ccc(O)c(O)c3)oc2c1 [3',4',5-trihydroxy-3,7-dimethoxyflavone] | 7.7 µM | 12.3 µM |
| C[C@@H]1O[C@@H](OC[C@H]2O[C@@H](Oc3c(-c4ccc(O)c(O)c4)oc4cc(O)cc(O)c4c3=O)[C@H](O)[C@@H](O)[C@@H]2O)[C@H](O)[C@H](O)[C@H]1O [3-Rhamnoglucosylquercetin] | – | 65.9 µM |
| COc1ccc(-c2cc(=O)c3c(O)c(OC)c(O)cc3o2)cc1 [4,5-Dihydroxy-6-methoxy-2-(4-methoxy-phenyl)-chromen-7-one] | – | 32.4 µM |
| COc1c(O)cc2oc(-c3ccc(O)cc3)cc(=O)c2c1O [5,7-dihydroxy-2-(4-hydroxyphenyl)-6-methoxy-4H-chromen-4-one] | 34.8 µM | 18.6 µM |
| COc1ccc(-c2cc(=O)c3c(O)cc(O)cc3o2)cc1 [5,7-dihydroxy-2-(4-methoxyphenyl)-4H-chromen-4-one] | 5.78 µM | 50 µM |

| Structure (SMILES) | IC50 [1] | IC50 [2] |
| --- | --- | --- |
| O=c1cc(-c2ccccc2)oc2cc(O)cc(O)c12 [5,7-dihydroxy-2-phenyl-4H-chromen-4-one] | 11.8 µM | 39.9 µM |
| COc1ccc(-c2cc(=O)c3c(O)cc(OC)cc3o2)cc1 [5-hydroxy-7-methoxy-2-(4-methoxyphenyl)-4H-chromen-4-one] | – | 27.8 µM |
| COc1c(O)cc2oc(-c3ccc(O)cc3)c(O)c(=O)c2c1O [6-methoxy kaempferol] | 22.4 µM | 17.2 µM |
| COc1ccc([C@@H]2CC(=O)c3c(O)cc(O)cc3O2)cc1O [(2S)-5,7-dihydroxy-2-(3-hydroxy-4-methoxyphenyl)-3,4-dihydro-2H-1-benzopyran-4-one] | – | 54.6 µM |
| Oc1cc(O)c2c(c1)O[C@H](c1cc(O)c(O)c(O)c1)[C@@H](O)C2 [(+)-gallocatechin] | 5.3 µM | 3.53 µM |
| COc1cc(-c2cc(=O)c3c(O)c(OC)c(O)cc3o2)ccc1O [Jaceosidin] | 19.1 µM | 18.9 µM |
| COc1ccc(-c2oc3cc(O)cc(O)c3c(=O)c2O)cc1 [Kaempferide] | 52.5 µM | 32.9 µM |
| COc1cc(O)c2c(=O)c(O)c(-c3ccc(OC)c(O)c3)oc2c1 [Kaempferol-7,4'-dimethylether] | 55.4 µM | 3.98 µM |
| O=c1cc(-c2ccc(O)c(O)c2)oc2c([C@@H]3O[C@H](CO)[C@@H](O)[C@H](O)[C@H]3O)c(O)cc(O)c12 [Luteolin 8-C-glucoside] | 38.2 µM | 55.7 µM |
| COc1cc(O)c2c(=O)cc(-c3ccc(OC)c(OC)c3)oc2c1 [Luteolin-7,3',4'-trimethylether] | – | 33.2 µM |
| O=c1cc(-c2ccc(O)cc2)oc2cc(O)cc(O)c12 [Naringenin, 18] | 2.2 µM | 14.3 µM |
| COc1ccc(-c2cc(=O)c3c(O)c(OC)c(O)c(OC)c3o2)cc1 [Nevadensin] | 16.3 µM | 23.9 µM |
| COc1c(O)cc2oc(-c3ccc(O)c(O)c3)c(O)c(=O)c2c1O [Patuletin] | 60.9 µM | 16.3 µM |
| O=c1c(-c2ccc(O)cc2)coc2cc(O)cc(O)c12 [Prunetol] | – | 61.4 µM |
| O=c1cc(O)cc2oc(-c3ccc(O)c(O)c3)c(O[C@@H]3O[C@H](CO)[C@@H](O)[C@H](O)[C@H]3O)c(O)c1-2 [Quercetin 3-O-beta-D-glucoside] | 21.7 µM | 51.3 µM |
| COc1cc(O)c2c(=O)cc(-c3ccc(O)c(OC)c3)oc2c1 [Velutin] | 7.8 µM | 52.5 µM |
